Source: ChEMBL document CHEMBL3102765, “Unsymmetrical 1,5-diaryl-3-oxo-1,4-pentadienyls and their evaluation as antiparasitic agents” (Bioorg Med Chem, 2014)

Columns and labels:
[1] = tested on: Leishmania amazonensis; experiment: Antiparasitic activity against promastigote form of Leishmania amazonensis MHOM/BR/Josefa after 72 hrs by hemocytometry; format: functional, organism-based
[2] = Cytotoxicity against mouse J774A1 cells after 48 hrs by MTT assay; format: cell-based, J774.A1
[3] = tested on: Trypanosoma cruzi; experiment: Antiparasitic activity against epimastigote form of Trypanosoma cruzi Y after 96 hrs by hemocytometry; format: functional, organism-based
[4] = tested on: Trypanosoma cruzi; experiment: Antiparasitic activity against trypomastigote form of Trypanosoma cruzi Y infected in LLCMK2 cells assessed as parasite lysis after 24 hrs by Pizzi-Brener method; format: functional, organism-based; details: LLC-MK2, 24 h
[5] = Cytotoxicity against monkey LLC-MK2 cells after 48 hrs by MTT assay; format: cell-based, Macaca mulatta; details: rhesus monkey

**Q.** Which IC50 [1] does the source give for COc1ccc(/C=C/C(=O)/C(C)=C/c2ccc(N(C)C)cc2)cc1 here?
**A.** 20.1 µM

**Q.** What about the CC50 at 48 h [2] of the same compound?
**A.** 34.3 µM

**Q.** What about the IC50 [3] of the same compound?
**A.** > 100 µM

**Q.** And the EC50 [4]?
**A.** > 100 µM

**Q.** And the CC50 at 48 h [5]?
**A.** 285 µM

**Q.** With C/C(=C\c1ccc(N(C)C)cc1)C(=O)/C=C/c1ccc([N+](=O)[O-])cc1 as the compound, how does the IC50 [1] read?
**A.** > 100 µM

**Q.** And the CC50 at 48 h [2]?
**A.** 967 µM

**Q.** And the IC50 [3]?
**A.** > 100 µM

**Q.** And the EC50 [4]?
**A.** > 100 µM

**Q.** And the CC50 at 48 h [5]?
**A.** 167 µM

**Q.** For C/C(=C\c1ccc(N(C)C)cc1)C(=O)/C=C/c1ccc(N(C)C)cc1, which IC50 [1] is on record?
**A.** 20.5 µM

**Q.** What about the CC50 at 48 h [2] of the same compound?
**A.** 10 µM

**Q.** What about the IC50 [3] of the same compound?
**A.** 25.1 µM

**Q.** What about the EC50 [4] of the same compound?
**A.** > 100 µM

**Q.** And the CC50 at 48 h [5]?
**A.** 314 µM

**Q.** Which IC50 [1] does the source give for CC(=O)/C(C)=C/c1ccccc1 here?
**A.** > 100 µM

**Q.** And the CC50 at 48 h [2]?
**A.** 742 µM

**Q.** What about the IC50 [3] of the same compound?
**A.** > 100 µM

**Q.** And the EC50 [4]?
**A.** > 100 µM

**Q.** What about the CC50 at 48 h [5] of the same compound?
**A.** 688 µM

**Q.** Which results are given for COc1ccc(/C=C(\C)C(C)=O)cc1?
**A.** IC50 [1]: > 100 µM; CC50 at 48 h [2]: 240 µM; IC50 [3]: > 100 µM; EC50 [4]: > 100 µM; CC50 at 48 h [5]: 280 µM

**Q.** Which IC50 [1] does the source give for CC(=O)/C(C)=C/c1ccc([N+](=O)[O-])cc1 here?
**A.** > 100 µM

**Q.** What about the CC50 at 48 h [2] of the same compound?
**A.** 70.5 µM

**Q.** What about the IC50 [3] of the same compound?
**A.** 82.2 µM

**Q.** What about the EC50 [4] of the same compound?
**A.** > 100 µM

**Q.** What about the CC50 at 48 h [5] of the same compound?
**A.** 266 µM

**Q.** For CC(=O)/C(C)=C/c1ccc(N(C)C)cc1, which IC50 [1] is on record?
**A.** > 100 µM

**Q.** What about the CC50 at 48 h [2] of the same compound?
**A.** 160 µM

**Q.** And the IC50 [3]?
**A.** > 100 µM

**Q.** And the EC50 [4]?
**A.** > 100 µM

**Q.** What about the CC50 at 48 h [5] of the same compound?
**A.** 150 µM

**Q.** With C/C(=C\c1ccccc1)C(=O)/C=C/c1ccccc1 as the compound, how does the IC50 [1] read?
**A.** 15.3 µM

**Q.** What about the CC50 at 48 h [2] of the same compound?
**A.** 34.5 µM

**Q.** And the IC50 [3]?
**A.** 15.9 µM

**Q.** What about the EC50 [4] of the same compound?
**A.** 71.7 µM

**Q.** And the CC50 at 48 h [5]?
**A.** 33.6 µM

**Q.** For COc1ccc(/C=C/C(=O)/C(C)=C/c2ccccc2)cc1, which IC50 [1] is on record?
**A.** 20.4 µM

**Q.** And the CC50 at 48 h [2]?
**A.** 51 µM

**Q.** What about the IC50 [3] of the same compound?
**A.** 14.3 µM

**Q.** What about the EC50 [4] of the same compound?
**A.** > 100 µM

**Q.** What about the CC50 at 48 h [5] of the same compound?
**A.** 93 µM

**Q.** With C/C(=C\c1ccccc1)C(=O)/C=C/c1ccc([N+](=O)[O-])cc1 as the compound, how does the IC50 [1] read?
**A.** 11.6 µM

**Q.** And the CC50 at 48 h [2]?
**A.** 26 µM

**Q.** What about the IC50 [3] of the same compound?
**A.** 16.9 µM

**Q.** And the EC50 [4]?
**A.** 65 µM

**Q.** What about the CC50 at 48 h [5] of the same compound?
**A.** 43.3 µM

**Q.** Which IC50 [1] does the source give for C/C(=C\c1ccccc1)C(=O)/C=C/c1ccc(N(C)C)cc1 here?
**A.** 20 µM

**Q.** And the CC50 at 48 h [2]?
**A.** 20.2 µM

**Q.** And the IC50 [3]?
**A.** 13.3 µM

**Q.** And the EC50 [4]?
**A.** > 100 µM

**Q.** And the CC50 at 48 h [5]?
**A.** 53 µM

**Q.** With COc1ccc(/C=C(\C)C(=O)/C=C/c2ccccc2)cc1 as the compound, how does the IC50 [1] read?
**A.** 22.3 µM

**Q.** What about the CC50 at 48 h [2] of the same compound?
**A.** 54 µM

**Q.** What about the IC50 [3] of the same compound?
**A.** 16.7 µM

**Q.** And the EC50 [4]?
**A.** 73.3 µM

**Q.** And the CC50 at 48 h [5]?
**A.** 44 µM

**Q.** With COc1ccc(/C=C/C(=O)/C(C)=C/c2ccc(OC)cc2)cc1 as the compound, how does the IC50 [1] read?
**A.** 21.8 µM

**Q.** And the CC50 at 48 h [2]?
**A.** 34.1 µM

**Q.** And the IC50 [3]?
**A.** 23.6 µM

**Q.** And the EC50 [4]?
**A.** > 100 µM

**Q.** What about the CC50 at 48 h [5] of the same compound?
**A.** 75 µM

**Q.** With COc1ccc(/C=C(\C)C(=O)/C=C/c2ccc([N+](=O)[O-])cc2)cc1 as the compound, how does the IC50 [1] read?
**A.** 14.8 µM

**Q.** What about the CC50 at 48 h [2] of the same compound?
**A.** 30 µM

**Q.** What about the IC50 [3] of the same compound?
**A.** 25.2 µM

**Q.** What about the EC50 [4] of the same compound?
**A.** > 100 µM

**Q.** What about the CC50 at 48 h [5] of the same compound?
**A.** 20.1 µM

**Q.** What does the source list for COc1ccc(/C=C(\C)C(=O)/C=C/c2ccc(N(C)C)cc2)cc1?
**A.** IC50 [1]: 18 µM; CC50 at 48 h [2]: 36.2 µM; IC50 [3]: 21.3 µM; EC50 [4]: > 100 µM; CC50 at 48 h [5]: 411 µM

**Q.** With C/C(=C\c1ccc([N+](=O)[O-])cc1)C(=O)/C=C/c1ccccc1 as the compound, how does the IC50 [1] read?
**A.** 13.4 µM

**Q.** What about the CC50 at 48 h [2] of the same compound?
**A.** 47.3 µM

**Q.** And the IC50 [3]?
**A.** 3.5 µM

**Q.** And the EC50 [4]?
**A.** 17.5 µM

**Q.** And the CC50 at 48 h [5]?
**A.** 264 µM

**Q.** Which results are given for COc1ccc(/C=C/C(=O)/C(C)=C/c2ccc([N+](=O)[O-])cc2)cc1?
**A.** IC50 [1]: 15.5 µM; CC50 at 48 h [2]: 36.6 µM; IC50 [3]: 10 µM; EC50 [4]: 73.3 µM; CC50 at 48 h [5]: 172 µM

**Q.** Which IC50 [1] does the source give for C/C(=C\c1ccc([N+](=O)[O-])cc1)C(=O)/C=C/c1ccc([N+](=O)[O-])cc1 here?
**A.** 3.4 µM

**Q.** What about the CC50 at 48 h [2] of the same compound?
**A.** 43 µM

**Q.** What about the IC50 [3] of the same compound?
**A.** 1.8 µM

**Q.** And the EC50 [4]?
**A.** 15.4 µM

**Q.** And the CC50 at 48 h [5]?
**A.** 32.5 µM

**Q.** Which IC50 [1] does the source give for C/C(=C\c1ccc([N+](=O)[O-])cc1)C(=O)/C=C/c1ccc(N(C)C)cc1 here?
**A.** 12 µM

**Q.** And the CC50 at 48 h [2]?
**A.** 24.7 µM

**Q.** And the IC50 [3]?
**A.** 14 µM

**Q.** And the EC50 [4]?
**A.** > 100 µM

**Q.** What about the CC50 at 48 h [5] of the same compound?
**A.** 25.9 µM

**Q.** Which results are given for C/C(=C\c1ccc(N(C)C)cc1)C(=O)/C=C/c1ccccc1?
**A.** IC50 [1]: 21.5 µM; CC50 at 48 h [2]: 28.5 µM; IC50 [3]: 24.1 µM; EC50 [4]: 78.3 µM; CC50 at 48 h [5]: 191 µM

**Q.** For C[C@@H]1[C@H](O)[C@@H](C)/C=C/C=C/C=C/C=C/C=C/C=C/C=C/[C@H](O[C@@H]2O[C@H](C)[C@@H](O)[C@H](N)[C@@H]2O)C[C@@H]2O[C@](O)(C[C@@H](O)C[C@@H](O)[C@H](O)CC[C@@H](O)C[C@@H](O)CC(=O)O[C@H]1C)C[C@H](O)[C@H]2C(=O)O [AMPHOTERICIN B], which IC50 [1] is on record?
**A.** 0.06 µM

**Q.** Which CC50 at 48 h [5] does the source give for O=C(Cn1ccnc1[N+](=O)[O-])NCc1ccccc1 [BENZNIDAZOLE] here?
**A.** 615 µM
